Test results reported in ChEMBL document CHEMBL1201862, “PubChem BioAssay data set” (2004).
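Cultured in 96-well plates, cells were exposed to test compound for 48 hours across five concentrations. Abbreviation: GI50, concentration required for 50% inhibition of growth.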 Activity calls are given as the source filed them. Rule as the data show it: active = GI50 up to about 1.1 µM and inactive = higher.

Legend:
Assay in all cases: NCI-60 cell line screen, 48 h
786-0 = tested on: 786-0
A498 = tested on: A498
A549 = tested on: A549
ACHN = tested on: ACHN
BT-549 = tested on: BT-549
CAKI-1 = tested on: CAKI-1
CCRF-CEM = tested on: CCRF-CEM
COLO 205 = tested on: COLO 205
DU-145 = tested on: DU-145
EKVX = tested on: EKVX
HCC 2998 = tested on: HCC 2998
HCT-116 = tested on: HCT-116
HCT-15 = tested on: HCT-15
HL-60 = tested on: HL-60
HOP-62 = tested on: HOP-62
HOP-92 = tested on: HOP-92
HT-29 = tested on: HT-29
Hs-578T = tested on: Hs-578T
IGROV-1 = tested on: IGROV-1
K562 = tested on: K562
KM12 = tested on: KM12
LOX IMVI = tested on: LOX IMVI
M14 = tested on: M14
MCF7 = tested on: MCF7
MDA-MB-231 = tested on: MDA-MB-231
MDA-MB-435 = tested on: MDA-MB-435
MDA-N = tested on: MDA-N
MOLT-4 = tested on: MOLT-4
Malme-3M = tested on: Malme-3M
NCI-H226 = tested on: NCI-H226
NCI-H23 = tested on: NCI-H23
NCI-H460 = tested on: NCI-H460
NCI-H522 = tested on: NCI-H522
NCI/ADR-RES = tested on: NCI/ADR-RES
OVCAR-3 = tested on: OVCAR-3
OVCAR-4 = tested on: OVCAR-4
OVCAR-5 = tested on: OVCAR-5
OVCAR-8 = tested on: OVCAR-8
PC-3 = tested on: PC-3
RPMI-8226 = tested on: RPMI-8226
RXF 393 = tested on: RXF 393
SF-268 = tested on: SF-268
SF-295 = tested on: SF-295
SF-539 = tested on: SF-539
SK-MEL-28 = tested on: SK-MEL-28
SK-MEL-2 = tested on: SK-MEL-2
SK-MEL-5 = tested on: SK-MEL-5
SK-OV-3 = tested on: SK-OV-3
SN12C = tested on: SN12C
SNB-19 = tested on: SNB-19
SR = tested on: SR
SW-620 = tested on: SW-620
TK-10 = tested on: TK-10
U-251 = tested on: U-251
UACC-257 = tested on: UACC-257
UACC-62 = tested on: UACC-62
UO-31 = tested on: UO-31
SNB-75 = tested on: SNB-75
T47D = tested on: T47D

`CCC1(CCSC(=N)N)C(=O)NC(=O)NC1=O` was tested, and the GI50 (786-0) was > 100 µM (inactive), the GI50 (A498) was > 100 µM (inactive) and the GI50 (A549) was > 100 µM (inactive). For the same molecule, the GI50 (ACHN) was > 100 µM (inactive), the GI50 (BT-549) was > 100 µM (inactive) and the GI50 (CAKI-1) was > 100 µM (inactive). For the same molecule, the GI50 (CCRF-CEM) was > 100 µM (inactive), the GI50 (COLO 205) was > 100 µM (inactive) and the GI50 (DU-145) was > 100 µM (inactive). The GI50 (EKVX) was > 100 µM (inactive), the GI50 (HCC 2998) was > 100 µM (inactive) and the GI50 (HCT-116) was > 100 µM (inactive). For the same molecule, the GI50 (HCT-15) was > 100 µM, the GI50 (HL-60) was 48.9 µM (inactive) and the GI50 (HOP-62) was > 100 µM (inactive). The GI50 (HOP-92) was > 100 µM (inactive), the GI50 (HT-29) was > 100 µM (inactive) and the GI50 (Hs-578T) was > 100 µM (inactive). For the same molecule, the GI50 (IGROV-1) was > 100 µM (inactive), the GI50 (K562) was > 100 µM (inactive) and the GI50 (KM12) was > 100 µM (inactive). The GI50 (LOX IMVI) was > 100 µM (inactive), the GI50 (M14) was > 100 µM (inactive) and the GI50 (MCF7) was > 100 µM (inactive). The GI50 (MDA-MB-231) was > 100 µM (inactive), the GI50 (MDA-MB-435) was > 100 µM (inactive) and the GI50 (MDA-N) was > 100 µM (inactive). For the same molecule, the GI50 (MOLT-4) was > 100 µM (inactive), the GI50 (Malme-3M) was > 100 µM (inactive) and the GI50 (NCI-H226) was > 100 µM (inactive). The GI50 (NCI-H23) was > 100 µM (inactive), the GI50 (NCI-H460) was > 100 µM (inactive) and the GI50 (NCI-H522) was > 100 µM (inactive). The GI50 (NCI/ADR-RES) was > 100 µM (inactive), the GI50 (OVCAR-3) was > 100 µM (inactive) and the GI50 (OVCAR-4) was > 100 µM (inactive). For the same molecule, the GI50 (OVCAR-5) was > 100 µM (inactive), the GI50 (OVCAR-8) was > 100 µM (inactive) and the GI50 (PC-3) was > 100 µM (inactive). The GI50 (RPMI-8226) was > 100 µM (inactive), the GI50 (RXF 393) was > 100 µM (inactive) and the GI50 (SF-268) was > 100 µM (inactive). The GI50 (SF-295) was > 100 µM (inactive), the GI50 (SF-539) was > 100 µM (inactive) and the GI50 (SK-MEL-28) was > 100 µM (inactive). For the same molecule, the GI50 (SK-MEL-2) was > 100 µM (inactive), the GI50 (SK-MEL-5) was > 100 µM (inactive) and the GI50 (SK-OV-3) was > 100 µM (inactive). For the same molecule, the GI50 (SN12C) was > 100 µM (inactive), the GI50 (SNB-19) was > 100 µM (inactive) and the GI50 (SR) was > 100 µM (inactive). For the same molecule, the GI50 (SW-620) was > 100 µM (inactive), the GI50 (TK-10) was > 100 µM (inactive) and the GI50 (U-251) was > 100 µM (inactive). For the same molecule, the GI50 (UACC-257) was > 100 µM (inactive), the GI50 (UACC-62) was > 100 µM (inactive) and the GI50 (UO-31) was > 100 µM (inactive).

In the case of `O=[N+]([O-])/C=C/c1cn(CCCCCCCCCCCCn2cc(/C=C/[N+](=O)[O-])c3ccccc32)c2ccccc12`, the GI50 (786-0) is reported as > 100 µM (inactive), the GI50 (A498) is reported as > 100 µM (inactive) and the GI50 (A549) is reported as > 100 µM (inactive). The GI50 (ACHN) was > 100 µM (inactive), the GI50 (BT-549) was > 100 µM (inactive) and the GI50 (CAKI-1) was > 100 µM (inactive). The GI50 (CCRF-CEM) was > 100 µM (inactive), the GI50 (COLO 205) was > 100 µM (inactive) and the GI50 (DU-145) was > 100 µM (inactive). For the same molecule, the GI50 (EKVX) was > 100 µM (inactive), the GI50 (HCC 2998) was > 100 µM (inactive) and the GI50 (HCT-116) was > 100 µM (inactive). For the same molecule, the GI50 (HCT-15) was > 100 µM, the GI50 (HL-60) was > 100 µM (inactive) and the GI50 (HOP-62) was > 100 µM (inactive). The GI50 (HOP-92) was > 100 µM (inactive), the GI50 (HT-29) was > 100 µM (inactive) and the GI50 (Hs-578T) was > 100 µM (inactive). The GI50 (IGROV-1) was > 100 µM (inactive), the GI50 (KM12) was > 100 µM (inactive) and the GI50 (LOX IMVI) was > 100 µM (inactive). For the same molecule, the GI50 (M14) was > 100 µM (inactive), the GI50 (MCF7) was > 100 µM (inactive) and the GI50 (MDA-MB-231) was > 100 µM (inactive). The GI50 (MDA-MB-435) was > 100 µM (inactive), the GI50 (MDA-N) was > 100 µM (inactive) and the GI50 (MOLT-4) was > 100 µM (inactive). For the same molecule, the GI50 (Malme-3M) was > 100 µM (inactive), the GI50 (NCI-H226) was > 100 µM (inactive) and the GI50 (NCI-H23) was > 100 µM (inactive). The GI50 (NCI-H460) was > 100 µM (inactive), the GI50 (NCI-H522) was > 100 µM (inactive) and the GI50 (NCI/ADR-RES) was > 100 µM (inactive). For the same molecule, the GI50 (OVCAR-3) was > 100 µM (inactive), the GI50 (OVCAR-4) was > 100 µM (inactive) and the GI50 (OVCAR-5) was > 100 µM (inactive). For the same molecule, the GI50 (OVCAR-8) was > 100 µM (inactive), the GI50 (PC-3) was > 100 µM (inactive) and the GI50 (RPMI-8226) was > 100 µM (inactive). The GI50 (SF-539) was > 100 µM (inactive), the GI50 (SK-MEL-28) was > 100 µM (inactive) and the GI50 (SK-MEL-2) was > 100 µM (inactive). The GI50 (SK-MEL-5) was > 100 µM (inactive), the GI50 (SK-OV-3) was > 100 µM (inactive) and the GI50 (SN12C) was > 100 µM (inactive). For the same molecule, the GI50 (SR) was > 100 µM (inactive), the GI50 (SW-620) was > 100 µM (inactive) and the GI50 (TK-10) was > 100 µM (inactive). The GI50 (U-251) was > 100 µM (inactive), the GI50 (UACC-257) was > 100 µM (inactive) and the GI50 (UACC-62) was > 100 µM (inactive). The GI50 (UO-31) was > 100 µM (inactive).

With `CC(C)(C)OC(=O)N(CCNS(=O)(=O)c1cccc2cnccc12)CCC(=O)ON1C(=O)CCC1=O` the GI50 (786-0) was > 100 µM (inactive), the GI50 (A549) was > 100 µM (inactive) and the GI50 (ACHN) was > 100 µM (inactive). The GI50 (BT-549) was > 100 µM (inactive), the GI50 (COLO 205) was > 100 µM (inactive) and the GI50 (DU-145) was > 100 µM (inactive). The GI50 (EKVX) was 6.52 µM (inactive), the GI50 (HCT-116) was > 100 µM (inactive) and the GI50 (HCT-15) was > 100 µM. For the same molecule, the GI50 (HOP-62) was > 100 µM (inactive), the GI50 (HOP-92) was 10.4 µM (inactive) and the GI50 (HT-29) was > 100 µM (inactive). For the same molecule, the GI50 (Hs-578T) was > 100 µM (inactive), the GI50 (IGROV-1) was > 100 µM (inactive) and the GI50 (K562) was > 100 µM (inactive). For the same molecule, the GI50 (LOX IMVI) was > 100 µM (inactive), the GI50 (M14) was > 100 µM (inactive) and the GI50 (MCF7) was > 100 µM (inactive). The GI50 (MDA-MB-231) was > 100 µM (inactive), the GI50 (MDA-MB-435) was > 100 µM (inactive) and the GI50 (MOLT-4) was > 100 µM (inactive). For the same molecule, the GI50 (Malme-3M) was > 100 µM (inactive), the GI50 (NCI-H226) was > 100 µM (inactive) and the GI50 (NCI-H23) was > 100 µM (inactive). The GI50 (NCI-H460) was 51.9 µM (inactive), the GI50 (NCI-H522) was > 100 µM (inactive) and the GI50 (NCI/ADR-RES) was > 100 µM (inactive). For the same molecule, the GI50 (OVCAR-3) was > 100 µM (inactive), the GI50 (OVCAR-4) was > 100 µM (inactive) and the GI50 (OVCAR-5) was > 100 µM (inactive). For the same molecule, the GI50 (OVCAR-8) was > 100 µM (inactive), the GI50 (PC-3) was > 100 µM (inactive) and the GI50 (RPMI-8226) was > 100 µM (inactive). The GI50 (RXF 393) was > 100 µM (inactive), the GI50 (SF-268) was > 100 µM (inactive) and the GI50 (SF-295) was > 100 µM (inactive). For the same molecule, the GI50 (SK-MEL-28) was > 100 µM (inactive), the GI50 (SK-MEL-2) was > 100 µM (inactive) and the GI50 (SK-MEL-5) was > 100 µM (inactive). For the same molecule, the GI50 (SK-OV-3) was > 100 µM (inactive), the GI50 (SN12C) was > 100 µM (inactive) and the GI50 (SNB-19) was > 100 µM (inactive). The GI50 (SNB-75) was > 100 µM (inactive), the GI50 (SR) was > 100 µM (inactive) and the GI50 (SW-620) was > 100 µM (inactive). The GI50 (T47D) was > 100 µM (inactive), the GI50 (TK-10) was > 100 µM (inactive) and the GI50 (U-251) was > 100 µM (inactive). For the same molecule, the GI50 (UACC-257) was > 100 µM (inactive), the GI50 (UACC-62) was > 100 µM (inactive) and the GI50 (UO-31) was > 100 µM (inactive).
